Tests used:
Type in all cases: cell-based
HIV-1/Ba-L [1] = test: Production of p25 protein in supernatants of MDMs infected with HIV-1/Ba-L (ELISA); conditions: infected MDM cultures
Procedure: The assaying of the p25 protein is carried out using the ELISA kit from DuPont de Nemours. 200 μl of the culture supernatant to be tested are placed in a well of a microtitration plate. The addition of 20 μl of lysis buffer releases the viral proteins in the medium. The released antigen attaches to a mouse anti-p25 monoclonal antibody immobilized at the bottom of the wells. After incubating for 2 h at 37° C., 3 washing operations using 5 ml of washing buffer are carried out and then 100 μl of a biotinylated polyclonal antibody which reacts with the immobilized antigen are incubated for 1 h at 37° C. The series of 3 washing operations in the same buffer and with the same volume is again carried out before the addition over 15 min at 37° C. of 100 μl of Raifort-streptavidin peroxidase conjugate which will make it possible to amplify the colorimetric reaction. […] After incubating for 30 min at ambient temperature, the reaction is halted by the addition of 100 μl of 4N sulfuric acid. The OD of the coloring thus obtained is read at […]. This absorbence is directly proportional to the amount of attached antigen. The linear relationship relating the O.D. to the p25 concentration is established by virtue of a standard range produced from a recombinant p25 solution.

HIV-1 LAI = test: Antiviral activity in quiescent or PHA-P activated PBLs infected with HIV-1 LAI; conditions: quiescent PBLs or PBLs activated by PHA-P
Procedure: For some experiments, the PBMCs and the PBLs are activated for 48 h with 1 μg/ml of a mitogen, PHA-P (Difco Laboratories). The PBMCs and the PBLs are cultured in medium A (quiescent) or B (activated). The cells are cultured at 37° C. in an atmosphere saturated with moisture under 5% of CO2. The culture supernatants are removed and the culture media are replaced every three or four days. At each renewal of the culture media, the cell viability is evaluated by coloring with trypan blue or by microscopic observation.
The MDMs were infected with the reference isolate with macrophage tropism, HIV-1/Ba-L. The PBMCs and the PBLs were infected with the reference isolate with lymphocyte tropism HIV-1 LAI. The viral stock were formed by amplifying these strains in vitro using umbilical blood mononucleated cells (UBM(s) preactivated with 1 μg/ml of PHA-P and cultured in medium A supplemented by 20 IU/ml of IL-2. In order to remove the soluble factors, such as cytokines, the culture supernatants were ultracentrifuged at 360 000 g for 5 min, and the pellets were resuspended in RPMI 1640. The viral stocks thus formed were subsequently titred using PBMCs activated with PHA-P. The TCID50s (50% Tissue Culture Infectious Dose) were calculated using the Kärber formula.
A million MDMs were infected with 10 000 TCID50s of the HIV-1/Ba-L strain. This amount of virus corresponds to a multiplicity of infection (m.o.i.) equal to 0.01. The excess of virus is removed 24 h after by washing with cells using RPMI 1640. […]
The viral replication is measured by assaying the RT activity in the culture supernatants according to the technique described by F. Rey et al. (Biochem. Biophys. Res. Comm., 1984, 121, 126-133). The radioactivity incorporated during the extension of the complementary strand of a poly-rA synthetic matrix in the presence of an oligo-dT12-18 primer and of a radiolabeled substrate, [^3H-methyl]thymidine-5′-triphosphate ([^3H]TPP), makes it possible to assay the enzymatic activity of RT. […] The β radioactivity is quantified by means of a scintillation counter (Packard Bell). […]

HIV provirus = test: Quantification of proviral DNAs by PCR (integration of the provirus within the cell genome); conditions: PCR of proviral DNA
Procedure: I-152 is composed of MEA and NAC, which are capable of interacting with the early phases of the biological cycle of HIV. It is therefore capable of decreasing the integration of the provirus into the cell genome. In order to measure these effects, the proviral DNAs were quantified by PCR. The cells were lysed using 1 ml of the following lysis solution: 10 mM Tris HCl pH 8; 100 mM of EDTA pH 8; 0.5% of sodium dodecyl sulfate (SDS); 20 μg/ml of DNAse-free bovine pancreatic RNAse. 200 μg/ml of proteinase K are subsequently added to this suspension. The DNAs were subsequently extracted using 1 ml of an ice-cold saturated phenol solution and 1 ml of a […] solution.
The viral DNAs were then amplified by means of specific primers of the gag gene (SK01/SK39) and of a standard range of the 8E5 line, a chronically infected line, the cells of which carry a proviral copy. The β-globin gene was used as reporter gene in order to make sure of the quality of the DNA extraction.

HIV-1/Ba-L [2] = test: Antiviral activity in MDM cultures infected with HIV-1/Ba-L (RT activity in culture supernatants); conditions: Human immunodeficiency virus 1, BAL; MDMs infected with 1 000 TCID50 (m.o.i. 0.001); read-out: 50% effective dose (ED)

CC(=O)N[C@@H](CS)C(=O)NCCSC(C)=O [I-152, N-(N-acetyl-L-cysteinyl)-S-acetylcysteamine]
production of the p25 protein (in words) (HIV-1/Ba-L [1]): inhibition of the production of the p25 protein
antiviral activity (in words) (HIV-1 LAI): inhibits viral replication
integration of the provirus (in words) (HIV provirus): inhibits the integration of the provirus
EC50 (HIV-1/Ba-L [2]): 3000 nM

Source: patent US6979747B2, “Antioxidants, preparation processes and their uses” (Centre National de la Recherche Scientifique (CNRS), priority 1999, dated 2005)
